IC50 and MIC data for 13 compounds are collected here from ChEMBL document CHEMBL4699665, “Discovery of ANT3310, a Novel Broad-Spectrum Serine β-Lactamase Inhibitor of the Diazabicyclooctane Class, Which Strongly Potentiates Meropenem Activity against Carbapenem-Resistant Enterobacterales and Acinetobacter baumannii” (J Med Chem, 2020).

Test [1] can be described thus: Inhibition of beta lactamase KPC-2 in Enterobacter cloacae assessed as decrease in enzyme activity using nitrocefin as substrate preincubated for 10 mins followed by substrate addition measured for 10 mins by fluorescence plate reader analysis.
Test [2] has as its system Acinetobacter baumannii. The test can be described thus: Potentiation of meropenem-induced antibacterial activity against Acinetobacter baumannii expressing OXA-23 assessed as meropenem MIC at 4 ug/ml by broth microdilution method (reference value: 32 ug/ml). The format is functional. To be noted: dose 4 µg/ml. For orientation: Broth dilution looks for growth in wells or tubes with falling amounts of substance.

Test [3] in a line: Inhibition of beta lactamase OXA-48 in Enterobacter cloacae assessed as decrease in enzyme activity using nitrocefin as substrate preincubated for 10 mins followed by substrate addition measured for 10 mins by fluorescence plate reader analysis.
Test [4] is described as follows: Inhibition of beta lactamase AmpC in Enterobacter cloacae assessed as decrease in enzyme activity using nitrocefin as substrate preincubated for 10 mins followed by substrate addition measured for 10 mins by fluorescence plate reader analysis.
The test system of test [5] is Klebsiella pneumoniae. The experiment in a line: Potentiation of meropenem-induced antibacterial activity against Klebsiella pneumoniae expressing TEM-1/SHV-11/KPC-3 assessed as meropenem MIC at 4 ug/ml by broth microdilution method (reference value: 128 ug/ml). Conditions: dose 4 µg/ml. The format is functional.
The nature of test [6]: Inhibition of beta lactamase TEM-1 in Enterobacter cloacae assessed as decrease in enzyme activity using nitrocefin as substrate preincubated for 10 mins followed by substrate addition measured for 10 mins by fluorescence plate reader analysis.
A short description of test [7]: Inhibition of beta lactamase CTXM-15 in Enterobacter cloacae assessed as decrease in enzyme activity using nitrocefin as substrate preincubated for 10 mins followed by substrate addition measured for 10 mins by fluorescence plate reader analysis.
The test system of test [8] is Enterobacter cloacae. The experiment in a line: Potentiation of meropenem-induced antibacterial activity against Enterobacter cloacae expressing TEM-1/KPC-2 assessed as meropenem MIC at 4 ug/ml by broth microdilution method (reference value: 8 ug/ml). The format is functional. To be noted: dose 4 µg/ml.
In test [9] the test system is Klebsiella pneumoniae. The test can be described thus: Potentiation of meropenem-induced antibacterial activity against Klebsiella pneumoniae expressing SHV-11/OXA-121 assessed as meropenem MIC at 4 ug/ml by broth microdilution method (reference value: 16 ug/ml). The format is functional. To be noted: dose 4 µg/ml.
Test [10] concerns Klebsiella pneumoniae. The experiment in a line: Potentiation of meropenem-induced antibacterial activity against Klebsiella pneumoniae expressing TEM-OSBL/CTX-M-14/OXA-48 assessed as meropenem MIC at 4 ug/ml by broth microdilution method (reference value: 16 ug/ml). The format is functional. To be noted: dose 4 µg/ml.
Test [11] can be described thus: Inhibition of bacteria beta lactamase OXA-23 assessed as decrease in enzyme activity using nitrocefin as substrate preincubated for 10 mins followed by substrate addition measured for 10 mins by fluorescence plate reader analysis.
Test [12] has as its system Acinetobacter baumannii. The experiment in a line: Antibacterial activity against Acinetobacter baumannii expressing OXA-23 by broth microdilution method. The format is functional.
Test [13] relates to Klebsiella pneumoniae. The experiment in a line: Antibacterial activity against Klebsiella pneumoniae expressing TEM-1/SHV-11/KPC-3 by broth microdilution method. It counts as functional.
Test [14] concerns Enterobacter cloacae. The test can be described thus: Antibacterial activity against Enterobacter cloacae expressing TEM-1/KPC-2 by broth microdilution method. The format is functional.
Test [15] concerns Klebsiella pneumoniae. The test can be described thus: Antibacterial activity against Klebsiella pneumoniae expressing SHV-11/OXA-181 by broth microdilution method. It counts as functional.
Test [16] deals with Klebsiella pneumoniae. The experiment in a line: Antibacterial activity against Klebsiella pneumoniae expressing TEM-OSBL/CTX-M-14/OXA-48 by broth microdilution method. It counts as functional.

≈ marks a conversion by molar mass, not a printed value.

The term IC50 denotes the concentration that inhibits the measured activity by half. A word on the MIC: it is the lowest concentration that inhibits growth of the organism. `O=C1N2C[C@@H](CC[C@H]2S(=O)(=O)C(F)(F)F)N1OS(=O)(=O)[O-].[Na+]`: the IC50 in test [1] is 15 nM; in test [3], 15 nM; in test [4] it was below 1 nM; in test [6] it was 1 nM; in test [7], 2 nM. The minimum inhibitory concentration (MIC) with Acinetobacter baumannii [2] amounted to 32 µg/mL; with Klebsiella pneumoniae [5] it was 8 µg/mL; in the test with Enterobacter cloacae [8], 0.06 µg/mL; with Klebsiella pneumoniae [9], 16 µg/mL; in the test on Klebsiella pneumoniae [10] it was 8 µg/mL.
As to `CC(F)(F)[C@@H]1CC[C@@H]2CN1C(=O)N2OS(=O)(=O)[O-].[Na+]`, the IC50 was 43 nM in test [1]; 169 nM in [3]; 313 nM in test [4]; 267 nM in test [6]; 200 nM in [7]; above 3000 nM in test [11]. Besides, the MIC was determined as 32 µg/mL in the test with Acinetobacter baumannii [2]; 2 µg/mL in the test on Klebsiella pneumoniae [5]; 0.06 µg/mL in the test with Enterobacter cloacae [8]; 16 µg/mL with Klebsiella pneumoniae [9]; 8 µg/mL in the test with Klebsiella pneumoniae [10].
For `O=C1N2C[C@@H](CC[C@H]2CF)N1OS(=O)(=O)[O-].[Na+]`, the IC50 was 51 nM in test [1]; 154 nM in test [3]; 304 nM in test [4]; 492 nM in test [6]; 119 nM in test [7]; above 3000 nM in test [11]. Besides, the MIC came to 32 µg/mL with Acinetobacter baumannii [2]; 2 µg/mL with Klebsiella pneumoniae [5]; 0.125 µg/mL in the test with Enterobacter cloacae [8]; 1 µg/mL in the test on Klebsiella pneumoniae [9]; 1 µg/mL with Klebsiella pneumoniae [10].
As for `O=C1N2CCC[C@H](C2)N1OS(=O)(=O)[O-].[Na+]`, the IC50 was above 3000 nM in test [1]; 1340 nM in test [3]; above 3000 nM in test [4]; 511 nM in [6]; 1200 nM in test [7]; above 3000 nM in [11]. Further, the minimal inhibitory concentration (MIC) came to 32 µg/mL in the test with Acinetobacter baumannii [2]; 64 µg/mL in the test on Klebsiella pneumoniae [5]; 2 µg/mL with Enterobacter cloacae [8]; 8 µg/mL in the test on Klebsiella pneumoniae [9]; 4 µg/mL in the test with Klebsiella pneumoniae [10].
With `O=C1N2C[C@@H](CC[C@H]2COC(F)(F)F)N1OS(=O)(=O)[O-].[Na+]`, the IC50 in test [1] is 13 nM; in test [3], 15 nM; in test [4], 23 nM; in test [6], 117 nM; in test [7] it was 11 nM; in test [11], above 3000 nM. The MIC in the test with Acinetobacter baumannii [2] was 32 µg/mL; with Klebsiella pneumoniae [5], 32 µg/mL; with Enterobacter cloacae [8], 0.25 µg/mL; in the test on Klebsiella pneumoniae [9], 16 µg/mL; in the test with Klebsiella pneumoniae [10] it was 8 µg/mL.
As to `O=C(NNC(=O)[C@@H]1CC[C@@H]2CN1C(=O)N2OS(=O)(=O)O)[C@@H]1CCCNC1` [ZIDEBACTAM], the MIC was above 128 µg/mL with Acinetobacter baumannii [12]; 2 µg/mL (≈ 5.11 µM) in the test with Klebsiella pneumoniae [13]; 0.5 µg/mL (≈ 1.28 µM) in the test with Enterobacter cloacae [14]; 2 µg/mL (≈ 5.11 µM) with Klebsiella pneumoniae [15]; 0.25 µg/mL (≈ 0.639 µM) in the test with Klebsiella pneumoniae [16].
For `O=C1N2C[C@@H](CC[C@H]2Cl)N1OS(=O)(=O)[O-].[Na+]`, the IC50 in test [1] was found to be 31 nM; in test [3], 269 nM; in test [4], 4 nM; in test [6] it was 1 nM; in test [7], 8 nM. The MIC in the test on Acinetobacter baumannii [2] was 32 µg/mL; in the test on Klebsiella pneumoniae [5], 64 µg/mL; in the test with Enterobacter cloacae [8], 0.06 µg/mL; in the test with Klebsiella pneumoniae [9] it was 4 µg/mL; in the test on Klebsiella pneumoniae [10] it was 4 µg/mL.
For `O=C1N2C[C@@H](CC[C@H]2C(F)F)N1OS(=O)(=O)[O-].[Na+]`, the IC50 in test [1] came to 7 nM; in test [3], 64 nM; in test [4] it was 35 nM; in test [6], 208 nM; in [7] it was 17 nM; in test [11], 1600 nM. In addition, the minimum inhibitory concentration (MIC) came out at 16 µg/mL in the test on Acinetobacter baumannii [2]; 1 µg/mL with Klebsiella pneumoniae [5]; 0.06 µg/mL with Enterobacter cloacae [8]; 1 µg/mL in the test on Klebsiella pneumoniae [9]; 2 µg/mL in the test on Klebsiella pneumoniae [10].
Take `O=C1N2C[C@@H](CC[C@H]2C(Cl)Cl)N1OS(=O)(=O)[O-].[Na+]`: the IC50 in test [1] stood at 4 nM; in test [3], 178 nM; in test [4] it was 52 nM; in test [6] it was 403 nM; in [7], 178 nM; in test [11], 1680 nM. For the same compound, the minimum inhibitory concentration (MIC) turned out to be 32 µg/mL in the test with Acinetobacter baumannii [2]; 2 µg/mL with Klebsiella pneumoniae [5]; 0.06 µg/mL with Enterobacter cloacae [8]; 16 µg/mL with Klebsiella pneumoniae [9]; 16 µg/mL in the test on Klebsiella pneumoniae [10].
For `O=C1N2C[C@@H](CC[C@H]2C(F)(F)F)N1OS(=O)(=O)[O-].[Na+]`, the IC50 in [1] was 6 nM; in test [3] it was 19 nM; in test [4], 4 nM; in test [6], 810 nM; in [7] it was 10 nM; in test [11], 810 nM. For the same compound, the minimal inhibitory concentration (MIC) turned out to be 16 µg/mL in the test with Acinetobacter baumannii [2]; 2 µg/mL in the test on Klebsiella pneumoniae [5]; 0.06 µg/mL in the test with Enterobacter cloacae [8]; 2 µg/mL in the test with Klebsiella pneumoniae [9]; 2 µg/mL in the test with Klebsiella pneumoniae [10].
Regarding `O=C1N2C[C@@H](CC[C@H]2C(F)(F)c2nccs2)N1OS(=O)(=O)[O-].[Na+]`, the IC50 in test [1] was 3 nM; in test [3] it was 1110 nM; in test [4], 1 nM; in [6], 216 nM; in test [7] it was 19 nM; in test [11] it was above 3000 nM. Also, the MIC was determined as 32 µg/mL with Acinetobacter baumannii [2]; 8 µg/mL in the test with Klebsiella pneumoniae [5]; 0.125 µg/mL in the test with Enterobacter cloacae [8]; 16 µg/mL with Klebsiella pneumoniae [9]; 16 µg/mL in the test with Klebsiella pneumoniae [10].
As for `O=C1N2C[C@@H](CC[C@H]2CCl)N1OS(=O)(=O)[O-].[Na+]`, the IC50 is 28 nM in test [1]; 443 nM in [3]; 26 nM in test [4]; 135 nM in test [6]; 84 nM in [7]; above 3000 nM in [11]. Moreover, the MIC with Acinetobacter baumannii [2] was 32 µg/mL; in the test with Klebsiella pneumoniae [5], 2 µg/mL; in the test with Enterobacter cloacae [8] it was 0.06 µg/mL; in the test on Klebsiella pneumoniae [9] it was 16 µg/mL; in the test with Klebsiella pneumoniae [10], 8 µg/mL.
`O=C1N2C[C@@H](CC[C@H]2SC(F)(F)F)N1OS(=O)(=O)[O-].[Na+]`: the IC50 in [1] came out at 2 nM; in [3], 99 nM; in test [4], 2 nM; in test [6], 26 nM; in test [7], 10 nM; in [11], 1320 nM. For the same compound, the MIC in the test with Acinetobacter baumannii [2] was determined as 32 µg/mL; in the test on Klebsiella pneumoniae [5], 4 µg/mL; in the test on Enterobacter cloacae [8], 0.03 µg/mL; with Klebsiella pneumoniae [9], 8 µg/mL; with Klebsiella pneumoniae [10], 8 µg/mL.
